Series [1] concerns the target T1, human TLR7 (Homo sapiens, UniProt Q9NYK1).
T1 sequence (Q9NYK1 27-1049): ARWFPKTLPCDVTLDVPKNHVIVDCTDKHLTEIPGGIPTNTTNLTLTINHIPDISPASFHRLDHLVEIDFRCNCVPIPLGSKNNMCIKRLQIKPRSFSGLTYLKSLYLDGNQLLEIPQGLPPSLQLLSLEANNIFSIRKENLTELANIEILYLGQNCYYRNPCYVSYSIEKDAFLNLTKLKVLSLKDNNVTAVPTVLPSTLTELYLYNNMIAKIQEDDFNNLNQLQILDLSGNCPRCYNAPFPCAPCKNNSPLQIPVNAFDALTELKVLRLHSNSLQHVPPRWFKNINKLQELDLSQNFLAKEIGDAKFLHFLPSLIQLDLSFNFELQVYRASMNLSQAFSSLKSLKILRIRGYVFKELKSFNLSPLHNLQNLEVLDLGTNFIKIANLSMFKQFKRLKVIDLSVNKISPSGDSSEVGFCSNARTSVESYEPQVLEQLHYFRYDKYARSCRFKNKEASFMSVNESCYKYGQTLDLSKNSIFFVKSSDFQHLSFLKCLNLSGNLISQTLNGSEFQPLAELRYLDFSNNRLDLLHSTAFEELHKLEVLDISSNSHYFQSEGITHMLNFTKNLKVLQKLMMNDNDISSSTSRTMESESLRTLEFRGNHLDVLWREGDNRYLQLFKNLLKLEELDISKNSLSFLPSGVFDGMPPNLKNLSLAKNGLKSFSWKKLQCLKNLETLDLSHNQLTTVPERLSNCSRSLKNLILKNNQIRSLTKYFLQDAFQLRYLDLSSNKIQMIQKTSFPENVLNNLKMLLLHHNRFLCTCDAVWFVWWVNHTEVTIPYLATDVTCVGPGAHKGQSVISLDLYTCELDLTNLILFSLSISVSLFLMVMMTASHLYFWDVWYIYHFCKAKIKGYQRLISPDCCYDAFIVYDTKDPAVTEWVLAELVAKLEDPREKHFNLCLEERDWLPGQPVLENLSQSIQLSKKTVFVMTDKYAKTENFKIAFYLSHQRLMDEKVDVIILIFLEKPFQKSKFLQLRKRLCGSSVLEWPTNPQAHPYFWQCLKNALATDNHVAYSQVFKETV
Put plainly: HEK293-Blue-hTLR-7 cells assay (SEAP reporter, NF-κB activation). As to conditions: for pEC50: HEK293-Blue-hTLR-7 cells, 20 hrs incubation, SEAP reporter; for Ratio (EC50(prodrug)/EC50(active form)): calculated ratio of prodrug EC50 to EC50 of corresponding active form. The format is cell-based. From the text:
HEK293-Blue-hTLR-7 Cells Assay
A stable HEK293-Blue-hTLR-7 cell line was purchased from InvivoGen (Cat. #: hkb-ht1r7, San Diego, Calif., USA). These cells were designed for studying the stimulation of human TLR7 by monitoring the activation of NF-κB. A SEAP (secreted embryonic alkaline phosphatase) reporter gene was placed under the control of the IFN-β minimal promoter fused to five NF-κB and AP-1-binding sites. The SEAP was induced by activating NF-κB and AP-1 via stimulating HEK-Blue hTLR7 cells with TLR7 ligands. Therefore the reporter expression was regulated by the NF-κB promoter upon stimulation of human TLR7 for 20 hrs. The cell culture supernatant SEAP reporter activity was determined using QUANTI-Blue™ kit (Cat. #: rep-qb1, Invivogen, San Diego, Calif., USA) at a wavelength of 640 nm, a detection medium that turns purple or blue in the presence of alkaline phosphatase.
HEK293-Blue-hTLR7 cells were incubated at a density of 250,000˜450,000 cells/mL in a volume of 180 μL in a 96-well plate in Dulbecco's Modified Eagle's medium (DMEM) containing 4.5 g/L glucose, 50 U/mL penicillin, […], […], 2 mM L-glutamine, 10% (V/V) heat-inactivated fetal bovine serum for 24 hrs. Then the HEK293-Blue-hTLR-7 cells were incubated with addition of 20 μL test compound in a serial dilution in the presence of final DMSO at 1% and perform incubation under 37° C. in a CO2 incubator for 20 hrs. Then 20 μL of the supernatant from each well was incubated with 180 μL Quanti-blue substrate solution at 37° C. for 2 hrs and the absorbance was read at 620˜655 nm using a spectrophotometer. The signalling pathway that TLR7 activation leads to downstream NF-κB activation has been widely accepted, and therefore similar reporter assay was also widely used for evaluating TLR7 agonist (Tsuneyasu Kaisho and Takashi Tanaka, Trends in Immunology, Volume 29, Issue 7, July 2008, […]; Hiroaki Hemmi et al, Nature Immunology 3, 196-200 (2002)).
The Compounds and Examples of the present invention were tested in HEK293-hTLR-7 assay for their TLR7 agonism activity as described herein and results are listed in Table 1. […] The calculated ratio of EC50(prodrug)/EC50(active form) were within the range from 27.7 to about 8233.

Series [2] is described as follows: Single dose PK study in Male Wister-Han Rats. The format is in vivo. On the procedure:
Single dose PK study in Male Wister-Han Rats The single dose PK in Male Wister-Han Rats was performed to assess pharmacokinetic properties of tested compounds. Two groups of animals were dosed via Gavage (POE) of the respective compound. Blood samples (approximately 20 μL) were collected via Jugular vein or an alternate site at 15 min, 30 min, 1 h, 2 h, 4 h, 7 h and 24 h post-dose groups. Blood samples were placed into tubes containing EDTA-K2 anticoagulant and centrifuged at 5000 rpm for 6 min at 4° C. to separate plasma from the samples. After centrifugation, the resulting plasma was transferred to clean tubes for bioanalysis of both prodrug and active form on LC/MS/MS. In the groups that prodrugs were dosed, the concentration of prodrugs in the plasma samples was under the detection limit. The “tested compound” in Table 3 was used as the internal standard for testing the metabolite (active form) of “dose compound” in vivo. The pharmacokinetic parameters were calculated using non-compartmental module of WinNonlin® Professional 6.2. The peak concentration (Cmax) was recorded directly from experimental observations. The area under the plasma concentration-time curve ([…]) was calculated using the linear trapezoidal rule up to the last detectable concentration. Cmax and AUC0-last are two critical PK parameters related to the in vivo efficacy of the tested compound. […]

[3] abbreviates: prodrug, read-out: HEK293-hTLR-7 EC50 (Prodrug).
Setting [4] is: corresponding active form, read-out: HEK293-hTLR-7 EC50 (Active form).

The values that follow come from patent US11220502B2, “Sulfone compounds and derivatives for the treatment and prophylaxis of virus infection” (Hoffmann-La Roche Inc., priority 2018, dated 2022).

Broadly, the pEC50 is −log10 of the EC50, conventionally taken in molar units.

Each structure is given as a SMILES string. pEC50: −log10 of the molar value. Like-named read-outs stand apart in the source and are kept apart here.

Turning to `CCCN(C)C(=O)n1c(=O)n(Cc2ccc(Cl)cc2)c2nc(S(=O)(=O)CC)nc(N)c21` [Example 8, 6-Amino-9-[(4-chlorophenyl)methyl]-2-ethylsulfonyl-N-methyl-8-oxo-N-propyl-purine-7-carboxamide], in series [1] (setting [3]), the pEC50 was 4.83. In series [1], the “Ratio (EC50(prodrug)/EC50(active form))” value was 179.5. In series [2] (oral administration, rats, prodrug versus active form), the “AUC0-last folds increase comparing with Compound 8a” value was determined as 14.5 folds. For the molecule `CCN(C)C(=O)n1c(=O)n(Cc2ccccc2)c2nc(S(=O)(=O)CC)nc(N)c21` [Example 3, 6-Amino-9-benzyl-N-ethyl-2-ethylsulfonyl-N-methyl-8-oxo-purine-7-carboxamide], in series [1] (setting [3]), the pEC50 is 3.98. Also, in series [1], the “Ratio (EC50(prodrug)/EC50(active form))” value is 614.1. Taken in the same sequence, the figures for `CCN(C)C(=O)n1c(=O)n(Cc2ccc(C)cc2)c2nc(S(=O)(=O)CC)nc(N)c21` [Example 16, 6-Amino-N-ethyl-2-ethylsulfonyl-N-methyl-8-oxo-9-(p-tolylmethyl)purine-7-carboxamide] were 4.36 and 445.9. As for `CCS(=O)(=O)c1nc(N)c2[nH]c(=O)n(Cc3ccc(Cl)cc3)c2n1` [Compound 8a, 6-amino-9-[(4-chlorophenyl)methyl]-2-ethylsulfonyl-7H-purin-8-one], in series [1] (setting [4]), the pEC50 is 7.08. The “Cmax (nM)” value in series [2] (5 mg/kg oral dosing, male Wister-Han rats, plasma, tested compound Compound 8a (active form)) is listed as “Not detected”. Regarding `CCS(=O)(=O)c1nc(N)c2[nH]c(=O)n(Cc3ccc(C)cc3)c2n1` [Compound 14a, 6-amino-2-ethylsulfonyl-9-(p-tolylmethyl)-7H-purin-8-one], in series [1] (setting [4]), the pEC50 is 7.19. On to `CCCN(C)C(=O)n1c(=O)n(Cc2ccc(Br)cc2)c2nc(S(=O)(=O)CC)nc(N)c21` [Example 22, 6-Amino-9-[(4-bromophenyl)methyl]-2-ethylsulfonyl-N-methyl-N-propyl-8-oxo-purine-7-carboxamide], for which the pEC50 in series [1] (setting [3]) was 4.88. The “Ratio (EC50(prodrug)/EC50(active form))” value in series [1] was 570. With `CCN(CC)C(=O)n1c(=O)n(Cc2ccc(C)cc2)c2nc(S(=O)(=O)CC)nc(N)c21` [Example 15, 6-Amino-N,N-diethyl-2-ethylsulfonyl-8-oxo-9-(p-tolylmethyl)purine-7-carboxamide], the pEC50 in series [1] (setting [3]) was 5.25. In series [1], the “Ratio (EC50(prodrug)/EC50(active form))” value is given as 86.2. Consider `CCCS(=O)(=O)c1nc(N)c2[nH]c(=O)n(Cc3ccc(C)cc3)c2n1` [Compound 12a, 6-amino-2-(propylsulfonyl)-9-(p-tolylmethyl)-7H-purin-8-one], for which the negative logarithm of the EC50 (pEC50) in series [1] (setting [4]) is 7.19. Take `CCS(=O)(=O)c1nc(N)c2[nH]c(=O)n(Cc3ccc(F)cc3)c2n1` [Compound 18a, 6-Amino-2-ethylsulfonyl-9-[(4-fluorophenyl)methyl]-7H-purin-8-one]: the pEC50 in series [1] (setting [4]) is 7.22. With `CCS(=O)(=O)c1nc(N)c2c(n1)n(Cc1ccc(Cl)cc1)c(=O)n2C(=O)N(C)C` [Example 10, 6-Amino-9-[(4-chlorophenyl)methyl]-2-ethylsulfonyl-N,N-dimethyl-8-oxo-purine-7-carboxamide], in series [1] (setting [3]), the pEC50 is 5.64. Also, the “Ratio (EC50(prodrug)/EC50(active form))” value in series [1] is 27.7.
